Data published in ChEMBL document CHEMBL1201862, “PubChem BioAssay data set” (2004).
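How tested: cells in 96-well plates exposed to compound for 48 hours at five concentrations. GI50 marks 50% less growth.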 Active and inactive are the calls of the source. Rule as the data show it: active = GI50 up to about 1.1 µM and inactive = higher.

Legend:
Assay in all cases: DTP human tumour cell line panel, 48 h
SN12C = tested on: SN12C
HT-29 = tested on: HT-29
RPMI-8226 = tested on: RPMI-8226
CCRF-CEM = tested on: CCRF-CEM
A549 = tested on: A549
SF-268 = tested on: SF-268
KM12 = tested on: KM12
K562 = tested on: K562
OVCAR-5 = tested on: OVCAR-5
IGROV-1 = tested on: IGROV-1
HCT-116 = tested on: HCT-116
Malme-3M = tested on: Malme-3M
SNB-19 = tested on: SNB-19
SNB-75 = tested on: SNB-75
HOP-62 = tested on: HOP-62
HCT-15 = tested on: HCT-15
SF-539 = tested on: SF-539
SK-MEL-2 = tested on: SK-MEL-2
HL-60 = tested on: HL-60
OVCAR-4 = tested on: OVCAR-4

SMILES	GI50 (SN12C)	GI50 (HT-29)	GI50 (RPMI-8226)	GI50 (CCRF-CEM)	GI50 (A549)	GI50 (SF-268)	GI50 (KM12)	GI50 (K562)	GI50 (OVCAR-5)	GI50 (IGROV-1)	GI50 (HCT-116)	GI50 (Malme-3M)	GI50 (SNB-19)	GI50 (SNB-75)	GI50 (HOP-62)	GI50 (HCT-15) [µM]	GI50 (SF-539)	GI50 (SK-MEL-2)	GI50 (HL-60)	GI50 (OVCAR-4)
O=[N+]([O-])c1ccc2[nH]c3c(-c4ccccc4)nccc3c2c1	25.1 µM (inactive)	10.7 µM (inactive)	0.796 µM (active)	4.09 µM (inactive)	15.6 µM (inactive)	25 µM (inactive)	34.8 µM (inactive)	1.71 µM (inactive)	67.8 µM (inactive)	7.03 µM (inactive)	17.1 µM (inactive)	18.9 µM (inactive)	15.3 µM (inactive)	11.7 µM (inactive)	14.7 µM (inactive)	8.59	63 µM (inactive)	35 µM (inactive)	6 µM (inactive)	10.5 µM (inactive)
O=C(NN1C(=O)CS(=O)(=O)C1c1ccc(Cl)c(Cl)c1)c1ccncc1 (stereo not given)	> 100 µM (inactive)	> 71.3 µM (inactive)	> 41.7 µM (inactive)	42.1 µM (inactive)	> 92.3 µM (inactive)	> 81.5 µM (inactive)	> 100 µM (inactive)	> 54.2 µM (inactive)	> 62.2 µM (inactive)	> 100 µM (inactive)	> 87.7 µM (inactive)	> 100 µM (inactive)	> 92.3 µM (inactive)	54.2 µM (inactive)	> 100 µM (inactive)	> 100	> 100 µM (inactive)	> 100 µM (inactive)	> 43 µM (inactive)	> 100 µM (inactive)
O=C(c1ccccc1Br)C(F)(F)F	> 100 µM (inactive)	> 100 µM (inactive)	> 100 µM (inactive)	> 100 µM (inactive)	> 100 µM (inactive)	> 100 µM (inactive)	> 100 µM (inactive)	> 100 µM (inactive)	> 100 µM (inactive)	> 100 µM (inactive)	> 100 µM (inactive)	> 100 µM (inactive)	> 100 µM (inactive)	> 100 µM (inactive)	> 100 µM (inactive)	> 100	> 100 µM (inactive)	> 10 µM (inactive)	> 100 µM (inactive)	> 100 µM (inactive)
